Source: PubChem BioAssay (NCI)
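48-hour exposure; five concentrations; linearly interpolated endpoints. TGI denotes the concentration required for complete inhibition of growth.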

Tests used:
Assay in all cases: DTP human tumour cell line panel, 48 h
[1] = tested on: HOP-62 NSCLC
[2] = tested on: HOP-92 NSCLC
[3] = tested on: IGROV1 ovarian
[4] = tested on: MCF7 breast
[5] = tested on: MDA-MB-435
[6] = tested on: NCI-H226 lung
[7] = tested on: OVCAR-5 ovarian
[8] = tested on: OVCAR-8 ovarian
[9] = tested on: RXF 393 renal
[10] = tested on: SF-268 CNS
[11] = tested on: SK-MEL-2 melanoma
[12] = tested on: SK-MEL-5 melanoma
[13] = tested on: SR leukemia
[14] = tested on: TK-10 renal
[15] = tested on: U251 CNS
[16] = tested on: UO-31 renal
[17] = tested on: HCT-15 colon
[18] = tested on: KM12 colon
[19] = tested on: SK-MEL-28 melanoma
[20] = tested on: A498 renal

SMILES	TGI [1] [µM]	TGI [2] [µM]	TGI [3] [µM]	TGI [4] [µM]	TGI [5] [µM]	TGI [6] [µM]	TGI [7] [µM]	TGI [8] [µM]	TGI [9] [µM]	TGI [10] [µM]	TGI [11] [µM]	TGI [12] [µM]	TGI [13] [µM]	TGI [14] [µM]	TGI [15] [µM]	TGI [16] [µM]	TGI [17] [µM]	TGI [18] [µM]	TGI [19] [µM]	TGI [20] [µM]
COC1/C=C/C=C(/C)Cc2cc(O)c(Cl)c(c2)N(C)C(=O)CC(OC(=O)C(C)C)C2(C)OC2C(C)C2CC1(O)NC(=O)O2 (stereo unspecified)	> 100	> 100	> 100	> 100	> 100	> 100	> 71.2	> 100	> 100	44.2	> 43.6	< 0.0116	> 55.4	> 65.2	> 43.9	> 100	–	–	–	–
CC#C[C@]1(O)CCC2[C@@H]3CCC4=CC(=O)CCC4=C3[C@@H](c3ccc(N(C)C)cc3)C[C@@]21C (stereo partly specified)	50.3	8.55	–	20.8	34	–	79.1	> 100	–	27.6	–	24.6	37.1	43.1	35.2	28.2	> 100	65.2	29.5	–
O=C(CN1CCCC1=O)CS(=O)(=O)c1ccccc1	> 100	–	> 100	> 100	> 100	> 100	> 100	> 100	> 100	> 100	> 100	> 100	> 100	> 100	> 100	> 100	–	> 100	> 100	–
O=C1CC(/C=C/c2ccco2)=C(O)C1=O	9.07	28.4	24.5	21.4	35.3	69.1	30.1	30	21.7	75	35.1	26.5	37.2	44.2	28.6	61.3	31.9	27.6	48.3	–
COC(C/C(=C/CO[Si](C(C)C)(C(C)C)C(C)C)C(=O)N(C(=O)OC(C)(C)C)c1ccccc1I)OC	> 100	> 100	29.6	41.2	> 100	> 100	> 100	> 100	–	> 100	37.5	> 100	> 100	> 100	> 100	> 100	> 100	> 100	> 100	> 100
COC(=O)CN(CC(=O)NCCCBr)C1CCCCC1N(CC(=O)OC)CC(=O)OC (stereo unspecified)	> 100	> 100	> 100	> 100	> 100	> 100	> 100	> 100	–	> 100	> 100	> 100	> 100	> 100	> 100	> 100	> 100	> 100	> 100	> 100
CC(C)(C)NC1=NC(C(F)(F)F)(C(F)(F)F)NC(=O)N1	> 100	> 100	> 100	> 100	> 100	> 100	> 100	> 100	> 100	> 100	> 100	80.5	> 100	> 100	> 100	> 100	> 100	> 100	> 100	–
C/C=C1/CN2CCC34c5ccccc5N(C)C23C2CC1C4(C(=O)OC)C(OC(C)=O)O2 (stereo unspecified)	> 100	> 100	> 100	> 100	> 100	> 100	> 100	> 100	–	> 100	> 100	> 100	> 100	> 100	> 100	> 100	> 100	> 100	> 100	> 100
O[C@@H]1C[C@H](Cl)c2c(Cl)sc(Cl)c21	> 100	–	> 100	> 100	> 100	–	> 100	> 100	> 100	> 100	> 100	> 100	> 100	> 100	> 100	> 100	> 100	> 100	> 100	–
O=C1c2ccccc2C(=O)N1n1c(Cc2ccc(Cl)cc2)n[nH]c1=O	> 100	> 100	> 100	> 100	> 100	> 100	> 100	> 100	–	–	> 100	> 100	> 100	> 100	> 100	> 100	> 100	> 100	> 100	> 100
CCN1c2ccccc2NC(=S)c2c1n[nH]c2-c1ccccc1	–	> 100	> 100	74.9	52.5	–	> 100	> 100	> 100	95.6	60.1	43.2	67.3	> 100	50.1	–	87.9	91.1	> 100	–
Cn1c(-c2ccc(-c3cc(-c4cccs4)c(-c4cccs4)n3C)cc2)cc(-c2cccs2)c1-c1cccs1	> 100	–	> 100	> 100	> 100	> 100	–	> 100	> 100	> 100	> 100	> 100	> 100	> 100	> 100	> 100	> 100	> 100	> 100	–
